From patent US20250034173A1, “PYRIDO[4,3-D]PYRIMIDINE COMPOUNDS” (PFIZER INC., priority 2023, published 2025) come the findings set out here.

One may read the Kd as the concentration at which binding is half-saturated. Lower therefore signals tighter binding. What is called IC50 is the concentration that inhibits the measured activity by half. A lower IC50 goes with greater potency.

One test addresses KRAS G12C (Homo sapiens (Human), UniProt P01116, G12C). As to the kind of experiment: SPR binding affinity and kinetics, GTPγS-loaded KRAS G12C. The note with it: GTPγS loaded protein, geomean. The procedure, abridged:
(§1)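 Binding was measured by SPR. Dissociation was then monitored for no less than 3600 seconds. No additional regeneration step followed. Finally, the fit was checked by c2 and residue distribution randomness.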

The next test has as its target KRAS G12V (Homo sapiens (Human), UniProt P01116, G12V). As to the kind of experiment: SPR binding affinity and kinetics, GTPγS-loaded KRAS G12V. As to conditions: GTPγS loaded protein, geomean. The procedure, abridged: as §1
(In SPR one partner is held on a chip, and binding of the other changes the refractive index at the surface.)

A further test deals with KRAS Wild Type (Homo sapiens (Human), UniProt P01116). The experiment in a line: SPR binding affinity and kinetics, GTPγS-loaded KRAS Wild Type. The note with it: GTPγS loaded protein, geomean. The procedure, abridged: as §1
A further test concerns the target NRAS Wild Type (Homo sapiens (Human), UniProt P01111). As to the kind of experiment: SPR binding affinity and kinetics, GTPγS-loaded NRAS Wild Type. As to conditions: GTPγS loaded protein, geomean. From the text: (§2) No additional regeneration was used.
(§3) Compound dissociation was monitored for at least 3600 seconds. […] No additional regeneration was used.
(§4) The adequateness of the fit was judged by c2 values and the randomness of residue distribution.

A further test has as its target HRAS Wild Type (Homo sapiens (Human), UniProt P01112). The experiment in a line: SPR binding affinity and kinetics, GTPγS-loaded HRAS Wild Type. The note with it: GTPγS loaded protein, geomean.
Description: as §2, §3, §4

For the next test, the target named is KRAS G12D (Homo sapiens (Human), UniProt P01116, G12D). The experiment in a line: SPR binding affinity and kinetics, GTPγS-loaded KRAS G12D. As to conditions: GTPγS loaded protein, geomean. The procedure, abridged:
as §1

Test [1] has as its system H358 (non-small cell lung cancer cell line). The experiment in a line: KRAS Cell Titer Glo (CTG) cell proliferation assay, H358. The test is classed as cell-based. The note with it: Homo sapiens, NCI-H358, 168 h; H358 cells, 7-day CTG, geomean IC50. The procedure, abridged:
(§5)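 Compounds pre-dispensed in 0.1% DMSO before seeding H358 (300 cells/well), SW620 (750) or PANC08.13 (600); 7-day exposure at 37 °C, 5% CO2. Viability by CellTiter-Glo luminescence after 15 min at room temperature. Percent effect normalised to DMSO (0%) and 1 uM trametinib (100%); geomean IC50.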
Background: Cellular ATP, detected with luciferase, serves as a proxy for viable cell number.

Test [2] has as its system PANC08.13 (pancreatic cancer cell line). As to the kind of experiment: KRAS Cell Titer Glo (CTG) cell proliferation assay, PANC08.13. It is filed as cell-based. As to conditions: Homo sapiens, PANC-08-13, 168 h; PANC08.13 cells, 7-day CTG, geomean IC50. The procedure, abridged:
as §5

Test [3] deals with SW620 (colorectal cancer cell line). The experiment in a line: KRAS Cell Titer Glo (CTG) cell proliferation assay, SW620. It is filed as cell-based. As to conditions: Homo sapiens, SW-620, 168 h; SW620 cells, 7-day CTG, geomean IC50. The essentials:
as §5

Turning to `COC/C=C1\CN2CCC[C@@]2(COc2nc3c4c(nc(-c5c6c(cc7[nH]ncc57)CCC[C@H]6OC)c(F)c4n2)OC[C@@H]2COCCCN32)C1` (single isomer, unassigned) [Example 58, (8aS)-4-fluoro-2-{[(2Z,7aS)-2-(2-methoxyethylidene)tetrahydro-1H-pyrrolizin-7a(5H)-yl]methoxy}-5-[(5R*)-5-methoxy-5,6,7,8-tetrahydro-1H-benzo[f]indazol-4-yl]-8a,9,12,13-tetrahydro-8H,11H-7,10-dioxa-1,3,6,13a-tetraazanaphtho[1,8-ab]heptalene], the Kd at KRAS G12C was 0.042 µM; at KRAS G12V, 0.081 µM; at KRAS Wild Type it was 0.061 µM; on NRAS Wild Type, more than 10 µM; on HRAS Wild Type, more than 10 µM; on KRAS G12D, 0.074 µM.

As to `F/C=C1\CN2CCC[C@@]2(COc2nc3c4c(nc(-c5c(C6CC6)c(Cl)cc6[nH]ncc56)c(F)c4n2)OC[C@@H]2COCCCN32)C1` [Example 16, (8aS)-5-(6-chloro-5-cyclopropyl-1H-indazol-4-yl)-4-fluoro-2-{[(2Z,7aS)-2-(fluoromethylidene)tetrahydro-1H-pyrrolizin-7a(5H)-yl]methoxy}-8a,9,12,13-tetrahydro-8H,11H-7,10-dioxa-1,3,6,13a-tetraazanaphtho[1,8-ab]heptalene], the Kd on KRAS G12C was 0.004 µM; on KRAS G12V it was 0.004 µM; at KRAS Wild Type, 0.004 µM; on NRAS Wild Type, more than 10 µM; at HRAS Wild Type it was more than 10 µM; at KRAS G12D it was 0.003 µM. In addition, the figures for the IC50 in [1], in test [2] and in test [3] were 0.022 µM, 0.002 µM and 0.023 µM, respectively.

As for `Fc1c(-c2c(C3CC3)c(Cl)cc3[nH]ncc23)nc2c3c(nc(OC[C@]45CCCN4CC4(CC4)C5)nc13)N1CCCOC[C@H]1CO2` [Example 19, (8aS)-2-{[(7′aR)-dihydro-1′H,3′H-spiro[cyclopropane-1,2′-pyrrolizin]-7′a(5′H)-yl]methoxy}-5-(6-chloro-5-cyclopropyl-1H-indazol-4-yl)-4-fluoro-8a,9,12,13-tetrahydro-8H,11H-7,10-dioxa-1,3,6,13a-tetraazanaphtho[1,8-ab]heptalene], the Kd was 0.005 µM on KRAS G12C; 0.009 µM at KRAS G12V; 0.008 µM on KRAS Wild Type; more than 10 µM on NRAS Wild Type; more than 10 µM at HRAS Wild Type; 0.006 µM at KRAS G12D. The IC50 in test [1] amounted to 0.062 µM; in test [2], 0.003 µM; in test [3], 0.103 µM.

On to `C=C1CN2CCC[C@@]2(COc2nc3c4c(nc(-c5c(C6CC6)ccc6[nH]ncc56)c(F)c4n2)OC[C@@H]2COCCCN32)C1` [Example 20, (8aS)-5-(5-cyclopropyl-1H-indazol-4-yl)-4-fluoro-2-{[(7aS)-2-methylidenetetrahydro-1H-pyrrolizin-7a(5H)-yl]methoxy}-8a,9,12,13-tetrahydro-8H,11H-7,10-dioxa-1,3,6,13a-tetraazanaphtho[1,8-ab]heptalene], for which the dissociation constant (Kd) at KRAS G12C is 0.031 µM; on KRAS G12V, 0.05 µM; on KRAS Wild Type, 0.091 µM; on NRAS Wild Type, more than 10 µM; at HRAS Wild Type, more than 10 µM; on KRAS G12D, 0.051 µM. Besides, the IC50 is 0.275 µM in test [1], 0.017 µM in test [2] and 0.4 µM in test [3].

With `C=C1CN2CCC[C@@]2(COc2nc3c4c(nc(-c5c(C6CC6)c(Cl)cc6[nH]ncc56)c(F)c4n2)OC[C@@H]2CCCCN32)C1` [Example 21, (8aS)-5-(6-chloro-5-cyclopropyl-1H-indazol-4-yl)-4-fluoro-2-{[(7aS)-2-methylidenetetrahydro-1H-pyrrolizin-7a(5H)-yl]methoxy}-8,8a,9,10,11,12-hexahydro-7-oxa-1,3,6,12a-tetraazabenzo[4,5]cyclohepta[1,2,3-de]naphthalene], the Kd at KRAS G12C is 0.014 µM; at KRAS G12V it was 0.015 µM; on KRAS Wild Type, 0.031 µM; on NRAS Wild Type, more than 10 µM; at HRAS Wild Type, more than 10 µM; on KRAS G12D it was 0.021 µM. Besides, the results for the IC50 in [1], in [2] and in test [3] were 0.381 µM, 0.008 µM and 0.268 µM, respectively.

`C=C1CN2CCC[C@@]2(COc2nc3c4c(nc(-c5c(C6CC6)c(Cl)cc6[nH]ncc56)c(F)c4n2)OC[C@@H]2COCCN32)C1` [Example 22, (8aS)-5-(6-chloro-5-cyclopropyl-1H-indazol-4-yl)-4-fluoro-2-{[(7aS)-2-methylidenetetrahydro-1H-pyrrolizin-7a(5H)-yl]methoxy}-8a,9,11,12-tetrahydro-8H-7,10-dioxa-1,3,6,12a-tetraazabenzo[4,5]cyclohepta[1,2,3-de]naphthalene]: the IC50 in [1] turned out to be 0.636 µM; in [2], 0.098 µM; in test [3], 0.839 µM. For the same compound, the Kd is more than 10 µM on NRAS Wild Type, more than 10 µM at HRAS Wild Type and 0.25 µM on KRAS G12D.

As for `C=C1CN2CCC[C@@]2(COc2nc3c4c(nc(-c5c(C6CC6)c(Cl)cc6[nH]ncc56)c(F)c4n2)OC[C@@H]2CC[C@H](O)CN32)C1` [Example 23, (8aS,11S)-5-(6-chloro-5-cyclopropyl-1H-indazol-4-yl)-4-fluoro-2-{[(7aS)-2-methylidenetetrahydro-1H-pyrrolizin-7a(5H)-yl]methoxy}-8,8a,9,10,11,12-hexahydro-7-oxa-1,3,6,12a-tetraazabenzo[4,5]cyclohepta[1,2,3-de]naphthalen-11-ol], the Kd is 0.003 µM at KRAS G12C; 0.002 µM at KRAS G12V; 0.003 µM on KRAS Wild Type; more than 10 µM at NRAS Wild Type; more than 10 µM on HRAS Wild Type; 0.003 µM at KRAS G12D. Moreover, the values for the IC50 in test [1], in [2] and in [3] were 0.102 µM, 0.003 µM and 0.156 µM, respectively.

As for `C=C1CN2CCC[C@@]2(COc2nc3c4c(nc(-c5c(C(C)C)c(Cl)cc6[nH]ncc56)c(F)c4n2)OC[C@@H]2COCCCN32)C1` [Example 24, (8aS)-5-[6-chloro-5-(propan-2-yl)-1H-indazol-4-yl]-4-fluoro-2-{[(7aS)-2-methylidenetetrahydro-1H-pyrrolizin-7a(5H)-yl]methoxy}-8a,9,12,13-tetrahydro-8H,11H-7,10-dioxa-1,3,6,13a-tetraazanaphtho[1,8-ab]heptalene], the Kd was 0.004 µM on KRAS G12C; 0.005 µM on KRAS G12V; 0.007 µM at KRAS Wild Type; more than 10 µM on NRAS Wild Type; more than 10 µM at HRAS Wild Type; 0.005 µM on KRAS G12D. Also, the IC50 in test [1] is 0.045 µM; in test [2], 0.006 µM; in test [3], 0.018 µM.

Consider `C[C@@H]1CCCc2cc3[nH]ncc3c(-c3nc4c5c(nc(OC[C@@]67CCCN6C/C(=C\F)C7)nc5c3F)N3CCCOC[C@H]3CO4)c21` [Example 54, (8aS)-4-fluoro-2-{[(2Z,7aS)-2-(fluoromethylidene)tetrahydro-1H-pyrrolizin-7a(5H)-yl]methoxy}-5-[(5R)-5-methyl-5,6,7,8-tetrahydro-1H-benzo[f]indazol-4-yl]-8a,9,12,13-tetrahydro-8H,11H-7,10-dioxa-1,3,6,13a-tetraazanaphtho[1,8-ab]heptalene], for which the Kd on KRAS G12C was less than 0.001 µM; at KRAS G12V it was 0.001 µM; at KRAS Wild Type it was 0.001 µM; at NRAS Wild Type, more than 10 µM; at HRAS Wild Type, more than 10 µM; at KRAS G12D, 0.001 µM.

With `C=C1CN2CCC[C@@]2(COc2nc3c4c(nc(-c5c6c(cc7[nH]nc(Cl)c57)CCC[C@H]6C)c(F)c4n2)OC[C@@H]2COCCCN32)C1` [Example 62, (8aS)-5-[(5R)-3-chloro-5-methyl-5,6,7,8-tetrahydro-1H-benzo[f]indazol-4-yl]-4-fluoro-2-{[(7aS)-2-methylidenetetrahydro-1H-pyrrolizin-7a(5H)-yl]methoxy}-8a,9,12,13-tetrahydro-8H,11H-7,10-dioxa-1,3,6,13a-tetraazanaphtho[1,8-ab]heptalene], the Kd is less than 0.001 µM on KRAS G12C; less than 0.001 µM on KRAS G12V; less than 0.001 µM on KRAS Wild Type; more than 10 µM at NRAS Wild Type; more than 10 µM on HRAS Wild Type; less than 0.001 µM on KRAS G12D.

For the compound “(1Z)-1-[(7aS)-7a-({[(8aS)-5-(6-chloro-5-cyclopropyl-1H-indazol-4-yl)-4-fluoro-8a,9,12,13-tetrahydro-8H,11H-7,10-dioxa-1,3,6,13a-tetraazanaphtho[1,8-ab]heptalen-2-yl]oxy}methyl)tetrahydro-1H-pyrrolizin-2(3H)-ylidene]propan-2-ol [Example 60]”, the Kd at KRAS G12C was 0.026 µM; at KRAS G12V it was 0.018 µM; at KRAS Wild Type, 0.025 µM; on NRAS Wild Type it was more than 10 µM; at HRAS Wild Type it was more than 10 µM; on KRAS G12D, 0.011 µM.
